Values joined by “and” are separate entries in the source; they are usually repeats but may differ in a detail not shown here. Identical values can stand only once. Inconclusive results and toxic doses are left out. Peptide text beside a SMILES is read from it. * marks the point of attachment. βNA = c1ccc2cc(N*)ccc2c1
System: P388 leukemia ip, CD2F1 mice, survival T/C
Test: NCI In Vivo Anticancer Drug Screen. Data for tumor model P388 Leukemia (intraperitoneal) in CD2F1 (CDF1) mice
Settings: endpoint: median survival time, higher = longer survival
How it was run: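 Mice carrying the transplanted tumor received test compound or vehicle. Survival was recorded in each group, and the value is the treated-group measurement divided by that of the vehicle-treated control group.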

[1] = dose: 50.0 mg/kg/injection, schedule: Q01DX009 (ip), vehicle: saline with Tween-80
[2] = dose: 100.0 mg/kg/injection, schedule: Q01DX009 (ip), vehicle: saline with Tween-80
[3] = dose: 200.0 mg/kg/injection, schedule: Q01DX009 (ip), vehicle: saline with Tween-80
[4] = dose: 50.0 mg/kg/injection, schedule: Q01DX005 (ip), vehicle: saline
[5] = dose: 100.0 mg/kg/injection, schedule: Q01DX005 (ip), vehicle: saline
[6] = dose: 200.0 mg/kg/injection, schedule: Q01DX005 (ip), vehicle: saline
[7] = dose: 50.0 mg/kg/injection, schedule: Q01DX005 (ip), vehicle: saline with Tween-80
[8] = dose: 100.0 mg/kg/injection, schedule: Q01DX005 (ip), vehicle: saline with Tween-80
[9] = dose: 200.0 mg/kg/injection, schedule: Q01DX005 (ip), vehicle: saline with Tween-80
[10] = dose: 50.0 mg/kg/injection, schedule: Q01DX005 (ip), vehicle: Klucel (hydroxypropylcellulose) (HPC)
[11] = dose: 100.0 mg/kg/injection, schedule: Q01DX005 (ip), vehicle: Klucel (hydroxypropylcellulose) (HPC)
[12] = dose: 200.0 mg/kg/injection, schedule: Q01DX005 (ip), vehicle: Klucel (hydroxypropylcellulose) (HPC)
[13] = dose: 12.5 mg/kg/injection, schedule: Q01DX009 (ip), vehicle: saline with Tween-80
[14] = dose: 25.0 mg/kg/injection, schedule: Q01DX009 (ip), vehicle: saline with Tween-80
[15] = dose: 50.0 mg/kg/injection, schedule: Q01DX009 (ip), vehicle: Klucel (hydroxypropylcellulose) (HPC)
[16] = dose: 100.0 mg/kg/injection, schedule: Q01DX009 (ip), vehicle: Klucel (hydroxypropylcellulose) (HPC)
[17] = dose: 200.0 mg/kg/injection, schedule: Q01DX009 (ip), vehicle: Klucel (hydroxypropylcellulose) (HPC)
[18] = dose: 100.0 mg/kg/injection, schedule: Q04DX003 (ip), vehicle: Klucel (hydroxypropylcellulose) (HPC)
[19] = dose: 25.0 mg/kg/injection, schedule: Q01DX005 (ip), vehicle: Klucel (hydroxypropylcellulose) (HPC)
[20] = dose: 100.0 mg/kg/injection, schedule: Q04DX003 (ip), vehicle: saline

CCOc1cccc(/C=N/n2c(C)nc3ccccc3c2=O)c1O
T/C [1]: 101 % of control
T/C [2]: 102 % of control
T/C [3]: 96 % of control

COc1cc2c(cc1OC)[C@H](Cc1ccc(Oc3cc4c(cc3O)-c3c(OC)c(OC)cc5c3[C@@H](C4)N(C)CC5)cc1)N(C)CC2
T/C (dose: 11.88 mg/kg/injection, schedule: Q01DX005 (ip), vehicle: Klucel (hydroxypropylcellulose) (HPC)): 98 % of control
T/C (dose: 23.75 mg/kg/injection, schedule: Q01DX005 (ip), vehicle: Klucel (hydroxypropylcellulose) (HPC)): 92 % of control
T/C (dose: 47.5 mg/kg/injection, schedule: Q01DX005 (ip), vehicle: Klucel (hydroxypropylcellulose) (HPC)): 93 % of control
T/C (dose: 95.0 mg/kg/injection, schedule: Q01DX005 (ip), vehicle: Klucel (hydroxypropylcellulose) (HPC)): 105 % of control

CN/N=C(/C)C(=O)O
T/C [4]: 106 % of control
T/C [5]: 99 % of control
T/C [6]: 99 % of control

O=C1CC2C(=O)N(Cc3ccccc3)C(=O)C2C(=O)N1 (stereo unspecified)
T/C [7]: 99 % of control
T/C [8]: 97 % of control
T/C [9]: 92 % of control

OC1=CC(=S)NC2CCCCC12 (stereo unspecified)
T/C [10]: 86 % of control
T/C [11]: 102 % of control
T/C [12]: 102 % of control

O=C1c2cccc3cccc(c23)C2C1N2C1CCCCC1 (stereo unspecified)
T/C (dose: 25.0 mg/kg/injection, schedule: Q01DX001 (ip), vehicle: saline sonified): 95 % of control
T/C (dose: 50.0 mg/kg/injection, schedule: Q01DX001 (ip), vehicle: saline sonified): 104 % of control
T/C (dose: 100.0 mg/kg/injection, schedule: Q01DX001 (ip), vehicle: saline sonified): 86 % of control

O=S1(=O)CN2C=CC=CC2=N1
T/C (dose: 6.25 mg/kg/injection, schedule: Q01DX009 (ip), vehicle: saline with Tween-80): 106 % of control
T/C [13]: 104 % of control
T/C [14]: 105 % of control
T/C [1]: 105 % of control

[Be]=[Se]
T/C (dose: 7.5 mg/kg/injection, schedule: Q01DX005 (ip), vehicle: other): 97 % of control
T/C (dose: 15.0 mg/kg/injection, schedule: Q01DX005 (ip), vehicle: other): 103 % of control and 108 % of control

CC(=O)c1nn(-c2ccccc2)c(=Nc2ccccc2)cc1C
T/C [7]: 100 % of control
T/C [8]: 101 % of control
T/C [9]: 98 % of control

CCOC(=O)c1sc2nc(C)[nH]c(=O)c2c1C
T/C [7]: 99 % of control

O=C(CC1=NCCN1)c1ccccc1
T/C [15]: 100 % of control
T/C [16]: 102 % of control
T/C [17]: 108 % of control

CCNC(=S)N/N=C(/c1ccccc1)c1ccccn1
T/C [15]: 105 % of control
T/C [16]: 95 % of control
T/C [17]: 115 % of control

NC(=S)c1cccc(C=Nc2ccccc2)n1
T/C (dose: 12.5 mg/kg/injection, schedule: Q04DX003 (ip), vehicle: Klucel (hydroxypropylcellulose) (HPC)): 106 % of control
T/C (dose: 25.0 mg/kg/injection, schedule: Q04DX003 (ip), vehicle: Klucel (hydroxypropylcellulose) (HPC)): 105 % of control
T/C (dose: 50.0 mg/kg/injection, schedule: Q04DX003 (ip), vehicle: Klucel (hydroxypropylcellulose) (HPC)): 97 % of control
T/C [18]: 91 % of control

CC(N)C(=O)NC(Cc1ccccc1)C(=O)N1CCCC1C(=O)Nc1ccc2ccccc2c1 (stereo not drawn) (H-Ala-Phe-Pro-βNA; configuration not given here)
T/C [4]: 106 % of control
T/C [5]: 92 % of control

NC(Cc1cccs1)C(=O)Nc1nncs1 (stereo unspecified)
T/C (dose: 100.0 mg/kg/injection, schedule: Q04DX002 (ip), vehicle: suspension in saline): 95 % of control
T/C (dose: 200.0 mg/kg/injection, schedule: Q04DX002 (ip), vehicle: suspension in saline): 119 % of control
T/C (dose: 400.0 mg/kg/injection, schedule: Q04DX002 (ip), vehicle: saline): 160 % of control
T/C (dose: 400.0 mg/kg/injection, schedule: Q04DX002 (ip), vehicle: suspension in saline): 121 % of control
T/C (dose: 600.0 mg/kg/injection, schedule: Q04DX002 (ip), vehicle: saline): 160 % of control

CCOC(=O)CCCn1nc(-c2ccc(Cl)cc2)c(-c2ccc(Cl)cc2)c(C#N)c1=O
T/C (dose: 100.0 mg/kg/injection, schedule: Q04DX002 (ip), vehicle: saline with Tween-80): 123 % of control

CC(=O)Nc1cccc(N=Cc2ccc[nH]2)c1
T/C [18]: 99 % of control
T/C (dose: 200.0 mg/kg/injection, schedule: Q04DX003 (ip), vehicle: Klucel (hydroxypropylcellulose) (HPC)): 100 % of control

CCOC(=O)/C=C(\C)Sc1cc(O)c2ccccc2c1O
T/C [13]: 119 % of control
T/C [1]: 108 % of control

CC1(C)OC2C(CCP(=O)(O)O)OC(c3nc(C(N)=O)cs3)C2O1 (stereo unspecified)
T/C (dose: 100.0 mg/kg/injection, schedule: Q04DX003 (ip), vehicle: suspension in saline): 99 % of control
T/C (dose: 200.0 mg/kg/injection, schedule: Q04DX003 (ip), vehicle: suspension in saline): 100 % of control
T/C (dose: 400.0 mg/kg/injection, schedule: Q04DX003 (ip), vehicle: suspension in saline): 119 % of control

CN1C=C/C(=C/[N+](=O)[O-])N(C)C1=O
T/C [19]: 99 % of control
T/C [10]: 105 % of control
T/C [11]: 100 % of control
T/C [12]: 112 % of control

O=C1N(C2CCCCC2)C(/C=C/c2ccccc2)C1(c1ccccc1)c1ccccc1 (stereo unspecified)
T/C [19]: 96 % of control
T/C [10]: 94 % of control
T/C [11]: 88 % of control
T/C [12]: 89 % of control and 91 % of control

ClB1NB(Cl)NB(Cl)N1
T/C [16]: 108 % of control and 93 % of control
T/C [17]: 108 % of control and 86 % of control
T/C (dose: 400.0 mg/kg/injection, schedule: Q01DX009 (ip), vehicle: Klucel (hydroxypropylcellulose) (HPC)): 109 % of control and 95 % of control

COC(=O)/C=C/CS(C)(=O)=O
T/C [7]: 105 % of control
T/C [8]: 101 % of control
T/C [9]: 99 % of control

O=[N+]([O-])c1cccc(C(O)C=C(C(F)(F)F)C(F)(F)F)c1 (stereo unspecified)
T/C [14]: 100 % of control
T/C (dose: 25.0 mg/kg/injection, schedule: Q04DX003 (ip), vehicle: saline): 100 % of control
T/C (dose: 33.0 mg/kg/injection, schedule: Q01DX009 (ip), vehicle: saline with Tween-80): 109 % of control
T/C [1]: 113 % of control
T/C (dose: 50.0 mg/kg/injection, schedule: Q04DX003 (ip), vehicle: saline): 95 % of control
T/C (dose: 75.0 mg/kg/injection, schedule: Q01DX009 (ip), vehicle: saline with Tween-80): 113 % of control
T/C [2]: 113 % of control
T/C [20]: 100 % of control

OCC(O)CCBr (stereo unspecified)
T/C [13]: 107 % of control
T/C [14]: 107 % of control
T/C [1]: 114 % of control and 96 % of control
T/C [2]: 89 % of control
T/C [20]: 118 % of control
T/C [3]: 95 % of control
T/C (dose: 200.0 mg/kg/injection, schedule: Q04DX003 (ip), vehicle: saline): 122 % of control
T/C (dose: 264.0 mg/kg/injection, schedule: Q01DX009 (ip), vehicle: saline sonified): 159 % of control
T/C (dose: 264.0 mg/kg/injection, schedule: Q04DX003 (ip), vehicle: saline): 110 % of control
T/C (dose: 400.0 mg/kg/injection, schedule: Q01DX009 (ip), vehicle: saline sonified): 181 % of control
T/C (dose: 600.0 mg/kg/injection, schedule: Q01DX009 (ip), vehicle: saline sonified): 186 % of control
T/C (dose: 600.0 mg/kg/injection, schedule: Q04DX003 (ip), vehicle: saline): 115 % of control

O=C(c1ccccc1)C(O)(CC(c1ccccc1)[P+](c1ccccc1)(c1ccccc1)c1ccccc1)c1ccccc1 (stereo unspecified)
T/C (dose: 1.32 mg/kg/injection, schedule: Q01DX009 (ip), vehicle: saline with Tween-80): 90 % of control
T/C (dose: 2.0 mg/kg/injection, schedule: Q01DX009 (ip), vehicle: saline with Tween-80): 104 % of control
T/C (dose: 3.0 mg/kg/injection, schedule: Q01DX009 (ip), vehicle: saline with Tween-80): 113 % of control
T/C (dose: 4.5 mg/kg/injection, schedule: Q01DX009 (ip), vehicle: saline with Tween-80): 118 % of control

CC1CC(C)/C(=N/NC(N)=S)C(C(O)CC2CC(=O)NC(=O)C2)C1 (stereo unspecified)
T/C [7]: 109 % of control
T/C [8]: 105 % of control
T/C [9]: 104 % of control

O=C1CN(CCCO)CC(=O)N2Cc3ccccc3CN12
T/C [4]: 94 % of control
T/C [5]: 100 % of control
T/C [6]: 99 % of control

COc1cccc(CCNC(=O)CCN2C(=O)CCC2=O)c1
T/C [2]: 105 % of control
T/C [3]: 100 % of control
T/C (dose: 400.0 mg/kg/injection, schedule: Q01DX009 (ip), vehicle: saline with Tween-80): 110 % of control
